Experimental data as given in ChEMBL document CHEMBL5212743, “Selectivity Literature for EUbOPEN Chemogenomics Library wave 3” (2023).

Experiments:
[1] = molecular target: Focal adhesion kinase 1 (Homo sapiens, UniProt Q05397); test: Selectivity interaction (KinomeScan (DiscoverX)) EUB0000702a PTK2; settings: at 1 µM
[2] = molecular target: T1, Tyrosine-protein kinase JAK3 (Homo sapiens) (UniProt P52333); test: Selectivity interaction (KinomeScan (DiscoverX)) EUB0000702a JAK3; settings: at 1 µM
T1 sequence (whole entry): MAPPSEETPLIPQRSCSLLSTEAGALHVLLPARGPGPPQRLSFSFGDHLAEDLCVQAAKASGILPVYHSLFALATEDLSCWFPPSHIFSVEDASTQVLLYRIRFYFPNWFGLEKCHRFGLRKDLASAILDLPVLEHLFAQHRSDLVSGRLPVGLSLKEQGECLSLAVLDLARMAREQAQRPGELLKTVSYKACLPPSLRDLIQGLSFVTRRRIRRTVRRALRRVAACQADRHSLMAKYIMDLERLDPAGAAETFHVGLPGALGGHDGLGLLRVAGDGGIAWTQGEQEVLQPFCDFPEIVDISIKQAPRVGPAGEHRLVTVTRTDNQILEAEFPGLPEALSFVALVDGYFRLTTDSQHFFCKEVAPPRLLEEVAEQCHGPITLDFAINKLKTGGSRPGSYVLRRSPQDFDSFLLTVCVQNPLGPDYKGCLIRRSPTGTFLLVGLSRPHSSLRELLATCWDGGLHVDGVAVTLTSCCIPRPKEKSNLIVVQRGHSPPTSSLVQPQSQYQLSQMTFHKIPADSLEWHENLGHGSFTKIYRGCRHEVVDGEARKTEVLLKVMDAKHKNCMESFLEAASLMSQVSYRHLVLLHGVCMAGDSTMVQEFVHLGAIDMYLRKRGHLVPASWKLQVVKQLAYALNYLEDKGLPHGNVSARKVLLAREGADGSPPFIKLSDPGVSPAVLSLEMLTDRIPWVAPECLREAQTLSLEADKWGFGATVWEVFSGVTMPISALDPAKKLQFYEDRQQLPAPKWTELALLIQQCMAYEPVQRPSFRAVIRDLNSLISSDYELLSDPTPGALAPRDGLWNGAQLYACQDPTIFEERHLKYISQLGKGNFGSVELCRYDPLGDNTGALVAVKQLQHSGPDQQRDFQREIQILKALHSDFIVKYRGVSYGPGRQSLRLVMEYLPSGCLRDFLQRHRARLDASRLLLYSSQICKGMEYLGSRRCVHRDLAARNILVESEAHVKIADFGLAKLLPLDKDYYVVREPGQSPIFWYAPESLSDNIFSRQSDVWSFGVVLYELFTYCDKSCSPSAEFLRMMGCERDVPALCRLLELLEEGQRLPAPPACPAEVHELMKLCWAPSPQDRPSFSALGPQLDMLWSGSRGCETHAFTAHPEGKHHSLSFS

[3] = molecular target: T2, Dual specificity mitogen-activated protein kinase kinase 5 (Homo sapiens) (UniProt Q13163); test: Selectivity interaction (KinomeScan (DiscoverX)) EUB0000305b MAP2K5; settings: CellTiter-Glo assay (Promega, proliferation in ACHN cells): IC50 = […] nM, https://www.sgc-ffm.uni-frankfurt.de/#!specificprobeove, at 100 nM
T2 sequence (whole entry): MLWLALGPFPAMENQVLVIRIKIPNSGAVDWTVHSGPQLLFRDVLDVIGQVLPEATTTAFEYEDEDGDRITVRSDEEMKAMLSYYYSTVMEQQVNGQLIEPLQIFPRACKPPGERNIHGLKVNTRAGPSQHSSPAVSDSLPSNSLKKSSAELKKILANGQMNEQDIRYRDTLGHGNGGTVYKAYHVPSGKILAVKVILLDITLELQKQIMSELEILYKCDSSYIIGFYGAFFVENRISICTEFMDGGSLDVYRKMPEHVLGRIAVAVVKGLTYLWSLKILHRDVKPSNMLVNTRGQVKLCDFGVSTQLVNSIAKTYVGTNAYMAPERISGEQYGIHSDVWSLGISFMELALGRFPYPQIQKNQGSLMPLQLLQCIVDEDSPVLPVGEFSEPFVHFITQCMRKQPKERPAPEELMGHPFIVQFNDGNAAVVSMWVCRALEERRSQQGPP

[4] = molecular target: High affinity nerve growth factor receptor (Homo sapiens, UniProt P04629); settings: at 1 µM
Sequence of High affinity nerve growth factor receptor (P04629 whole entry, looked up): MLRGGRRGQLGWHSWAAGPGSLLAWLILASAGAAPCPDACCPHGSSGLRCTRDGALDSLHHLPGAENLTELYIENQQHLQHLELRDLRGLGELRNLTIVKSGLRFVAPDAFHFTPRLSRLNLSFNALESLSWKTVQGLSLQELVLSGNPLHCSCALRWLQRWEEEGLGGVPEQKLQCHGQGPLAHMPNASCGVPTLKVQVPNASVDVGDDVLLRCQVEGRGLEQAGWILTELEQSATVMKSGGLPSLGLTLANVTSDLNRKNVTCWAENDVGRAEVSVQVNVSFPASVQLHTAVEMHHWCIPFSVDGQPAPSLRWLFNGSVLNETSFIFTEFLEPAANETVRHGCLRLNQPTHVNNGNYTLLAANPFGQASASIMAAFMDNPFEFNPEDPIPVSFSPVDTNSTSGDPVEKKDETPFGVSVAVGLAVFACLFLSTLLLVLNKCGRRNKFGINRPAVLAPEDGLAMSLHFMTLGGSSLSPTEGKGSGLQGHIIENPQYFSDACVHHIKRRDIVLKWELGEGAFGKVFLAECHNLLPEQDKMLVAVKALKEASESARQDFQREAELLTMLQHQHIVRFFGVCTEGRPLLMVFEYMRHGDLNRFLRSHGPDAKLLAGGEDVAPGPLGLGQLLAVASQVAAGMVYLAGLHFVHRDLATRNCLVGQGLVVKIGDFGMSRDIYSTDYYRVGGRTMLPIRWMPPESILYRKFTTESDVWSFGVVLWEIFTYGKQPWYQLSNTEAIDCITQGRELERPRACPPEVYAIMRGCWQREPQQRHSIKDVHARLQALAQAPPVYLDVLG

[5] = molecular target: T3, Alpha-1A adrenergic receptor (Homo sapiens) (UniProt P35348); test: Selectivity interaction (SafetyScreen44™ (Eurofins, panel of GPCRS, ion channels, transporters) ) EUB0000169b ADRA1A; settings: at 10 µM
T3 sequence (whole entry): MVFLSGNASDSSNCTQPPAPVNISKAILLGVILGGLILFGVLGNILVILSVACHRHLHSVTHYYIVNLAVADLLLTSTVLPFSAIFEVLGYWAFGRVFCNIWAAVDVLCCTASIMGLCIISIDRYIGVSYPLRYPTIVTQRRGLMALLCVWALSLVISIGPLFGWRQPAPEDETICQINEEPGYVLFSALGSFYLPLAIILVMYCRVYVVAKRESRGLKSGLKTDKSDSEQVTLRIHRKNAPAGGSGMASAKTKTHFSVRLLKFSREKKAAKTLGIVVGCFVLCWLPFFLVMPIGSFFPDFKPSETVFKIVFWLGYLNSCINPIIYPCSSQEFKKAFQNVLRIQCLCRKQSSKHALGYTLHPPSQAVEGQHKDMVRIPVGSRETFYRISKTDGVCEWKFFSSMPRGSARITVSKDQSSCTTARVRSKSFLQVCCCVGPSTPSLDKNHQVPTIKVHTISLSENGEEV

[6] = molecular target: MAP kinase-activated protein kinase 5 (Homo sapiens) (UniProt Q8IW41); settings: at 10 µM
Sequence of MAP kinase-activated protein kinase 5 (Homo sapiens) (Q8IW41 whole entry): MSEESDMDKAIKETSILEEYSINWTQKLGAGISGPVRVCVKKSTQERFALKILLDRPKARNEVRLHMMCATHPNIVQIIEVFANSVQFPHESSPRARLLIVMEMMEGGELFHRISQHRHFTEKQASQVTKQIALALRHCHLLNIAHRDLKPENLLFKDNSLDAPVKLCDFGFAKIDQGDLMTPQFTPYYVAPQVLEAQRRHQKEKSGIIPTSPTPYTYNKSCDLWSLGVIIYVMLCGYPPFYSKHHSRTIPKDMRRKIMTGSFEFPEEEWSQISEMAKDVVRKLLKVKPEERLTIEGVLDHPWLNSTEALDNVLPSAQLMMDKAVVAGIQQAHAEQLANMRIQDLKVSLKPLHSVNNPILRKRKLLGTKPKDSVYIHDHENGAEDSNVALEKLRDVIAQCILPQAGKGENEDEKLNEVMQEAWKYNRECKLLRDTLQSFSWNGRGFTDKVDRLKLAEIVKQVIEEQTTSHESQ

Sequence of Focal adhesion kinase 1 (Q05397 2-1052 limits assumed): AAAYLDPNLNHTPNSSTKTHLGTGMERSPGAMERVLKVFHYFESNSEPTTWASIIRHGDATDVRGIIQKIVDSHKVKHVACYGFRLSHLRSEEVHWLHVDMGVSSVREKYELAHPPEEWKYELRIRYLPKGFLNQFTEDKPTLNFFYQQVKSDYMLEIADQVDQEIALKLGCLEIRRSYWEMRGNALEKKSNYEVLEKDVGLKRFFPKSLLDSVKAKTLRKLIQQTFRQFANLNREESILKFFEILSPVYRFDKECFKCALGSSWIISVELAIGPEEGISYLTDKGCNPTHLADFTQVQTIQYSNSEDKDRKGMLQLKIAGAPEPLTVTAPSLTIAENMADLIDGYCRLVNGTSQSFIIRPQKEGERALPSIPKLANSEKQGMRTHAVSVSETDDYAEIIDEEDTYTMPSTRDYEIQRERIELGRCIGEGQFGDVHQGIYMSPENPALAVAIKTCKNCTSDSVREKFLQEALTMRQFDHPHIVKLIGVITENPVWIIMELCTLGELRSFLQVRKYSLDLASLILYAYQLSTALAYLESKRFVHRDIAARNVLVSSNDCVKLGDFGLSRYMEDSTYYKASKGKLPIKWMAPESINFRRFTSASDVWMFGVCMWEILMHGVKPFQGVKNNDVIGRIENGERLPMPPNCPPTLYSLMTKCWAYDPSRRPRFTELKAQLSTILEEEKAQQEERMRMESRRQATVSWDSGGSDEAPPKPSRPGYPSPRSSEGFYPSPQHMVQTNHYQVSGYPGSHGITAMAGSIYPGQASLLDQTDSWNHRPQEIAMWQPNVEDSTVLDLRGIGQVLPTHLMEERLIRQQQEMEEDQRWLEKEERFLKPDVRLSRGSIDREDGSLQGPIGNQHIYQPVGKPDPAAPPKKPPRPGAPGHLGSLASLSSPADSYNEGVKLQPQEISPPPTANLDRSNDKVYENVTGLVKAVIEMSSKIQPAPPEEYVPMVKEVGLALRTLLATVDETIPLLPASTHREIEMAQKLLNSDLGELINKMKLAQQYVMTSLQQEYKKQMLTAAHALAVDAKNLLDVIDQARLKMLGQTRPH

Structure (SMILES): CN(c1ccnc(CNc2nc(Nc3ccc4c(c3)CC(=O)N4)ncc2C(F)(F)F)n1)S(C)(=O)=O [PF-00911705]
- % of control [1]: 4.9%
- % of control [2]: 1.9%

Structure (SMILES): C[C@H](c1ccnc(Nc2nc3ccc(-c4cc(N(C)C)ncn4)cc3[nH]2)c1)N1CCN(C(=O)CC(F)(F)F)CC1 [BAY-985]
- % of control [3]: 8.5%

Structure (SMILES): CCOc1cn(-c2ccc(F)cc2C)nc1C(=O)Nc1ccc(Oc2ccnc3cc(OC)c(OC)cc23)c(F)c1
- % of control [4]: < 10%

Structure (SMILES): CC[C@@H]1C(=O)N(C)c2cnc(Nc3ccc(C(=O)NC4CCN(C)CC4)cc3OC)nc2N1C1CCCC1
- % of control [5]: 13%
- % of control [6]: 86%
